Test results from patent publication US8278465B2, “Coumarin derivative having antitumor activity” (Chugai Seiyaku Kabushiki Kaisha, priority 2006, dated 2012).

Tested on: human colon cancer cell line HCT116
Assay: Measurement of cell proliferation inhibitory activity (Cell Counting Kit-8)
Type: cell-based
Conditions: HCT116, 4 days incubation, Table 1-2; read-out: IC50 (50% proliferation inhibitory concentration)
Experimental: The cell proliferation inhibitory activities of the compounds and salts shown in Tables 1-1, 1-2 and Table 2 were measured as follows, using the human colon cancer cell line HCT116 (American Type Culture Collection, VA, USA). 2000 to 3000 cells per well of the human colon cancer cell line HCT116 was placed in a 96-well culture plate, a predetermined concentration (0.00038 μM, 0.00076 μM, 0.0015 μM, 0.0031 μM, 0.0061 μM, 0.012 μM, 0.024 μM, 0.049 μM, 0.098 μM, 0.195 μM, 0.39 μM, 0.78 μM, 1.56 μM, 3.13 μM, 6.25 μM, 12.5 μM, 25 μM or 50 μM) of the test substance was added thereto, and the mixture was then incubated at 37° C. under 5% CO2 environment for 4 days. On day 4 of incubation, the Cell Counting Kit-8 solution (Dojindo Laboratories) was added, the absorbance (measurement wavelength: 450 nm; reference wavelength: 615 nm) was measured following the protocol attached to the kit, and the 50% proliferation inhibitory concentration (IC50) was calculated.

Structure (SMILES)	IC50
Cc1c(Cc2ccccc2)c(=O)oc2cc(OC(=O)N(C)C)c(Cl)cc12 [Comp. 2, dimethylcarbamic acid 2-oxo-2H-3-benzyl-4-methyl-6-chloro-1-benzopyran-7-yl ester, reference compound]	1300 nM

Same assay, conditions: Homo sapiens, HCT-116, 96 h; HCT116, 4 days incubation, Table 1-1; read-out: IC50 (50% proliferation inhibitory concentration)

Structure (SMILES)	IC50
CNS(=O)(=O)Nc1cccc(Cc2c(CF)c3cc(Cl)c(OC(=O)N(C)C)cc3oc2=O)c1 [Compound 1j-1-3-2F, Dimethylcarbamic acid 6-chloro-4-fluoromethyl-3-{3-(methylaminosulfonyl)aminobenzyl}-2-oxo-2H-1-benzopyran-7-yl ester]	19.5 nM
Cc1c(Cc2cccc(NS(N)(=O)=O)c2F)c(=O)oc2cc(OC(=O)N(C)C)ccc12 [Compound 1j-1-4-1, Dimethylcarbamic acid 3-(3-aminosulfonylamino-2-fluoro-benzyl)-4-methyl-2-oxo-2H-1-benzopyran-7-yl ester]	17.6 nM
CNS(=O)(=O)Nc1cccc(Cc2c(C)c3ccc(OC(=O)N(C)C)cc3oc2=O)c1F [Compound 1j-1-4-2, Dimethylcarbamic acid 3-(3-methylaminosulfonylamino-2-fluorobenzyl)-4-methyl-2-oxo-2H-1-benzopyran-7-yl ester]	9.3 nM
CNS(=O)(=O)Nc1cccc(Cc2c(CF)c3ccc(OC(=O)N(C)C)cc3oc2=O)c1F [Compound 1j-1-4-2F, Dimethylcarbamic acid 3-(3-methylaminosulfonylamino-2-fluorobenzyl)-4-fluoromethyl-2-oxo-2H-1-benzopyran-7-yl ester]	10.6 nM
Cc1c(Cc2cccc(NS(N)(=O)=O)c2F)c(=O)oc2cc(OC(=O)N(C)C)c(F)cc12 [Compound 1j-1-5-1, Dimethylcarbamic acid 3-{2-fluoro-3-(aminosulfonyl)aminobenzyl}-6-fluoro-4-methyl-2-oxo-2H-1-benzopyran-7-yl ester]	8.3 nM
CNS(=O)(=O)Nc1cccc(Cc2c(C)c3cc(F)c(OC(=O)N(C)C)cc3oc2=O)c1F [Compound 1j-1-5-2, Dimethylcarbamic acid 6-fluoro-4-methyl-3-{2-fluoro-3-(methylaminosulfonyl)aminobenzyl}-2-oxo-2H-1-benzopyran-7-yl ester]	2.9 nM
Cc1c(Cc2cccc(NS(N)(=O)=O)c2)c(=O)oc2cc(OC(=O)N(C)C)c(I)cc12 [Compound 1j-1-7-1, Dimethylcarbamic acid 3-{3-(aminosulfonyl)aminobenzyl}-6-iodo-4-methyl-2-oxo-2H-1-benzopyran-7-yl ester]	11.4 nM
CNS(=O)(=O)Nc1cccc(Cc2c(C)c3cc(I)c(OC(=O)N(C)C)cc3oc2=O)c1 [Compound 1j-1-7-2, Dimethylcarbamic acid 6-iodo-4-methyl-3-{3-(methylaminosulfonyl)aminobenzyl}-2-oxo-2H-1-benzopyran-7-yl ester]	7.9 nM
CNS(=O)(=O)Nc1cccc(Cc2c(C)c3cc(C)c(OC(=O)N(C)C)cc3oc2=O)c1 [Compound 1j-1-8-2, Dimethylcarbamic acid 6-methyl-4-methyl-3-{3-(methylaminosulfonyl)aminobenzyl}-2-oxo-2H-1-benzopyran-7-yl ester]	21.7 nM
CNS(=O)(=O)Nc1cccc(Cc2c(C)c3cc(C#N)c(OC(=O)N(C)C)cc3oc2=O)c1 [Compound 1j-1-9-2]	24.2 nM

Same assay, conditions: Homo sapiens, HCT-116, 96 h; HCT116, 4 days incubation, Table 1-2; read-out: IC50 (50% proliferation inhibitory concentration)

Structure (SMILES)	IC50
CNS(=O)(=O)Nc1cc(Cc2c(C)c3ccc(OC(=O)N(C)C)cc3oc2=O)ccn1 [Compound 1j-1-10-2, Dimethylcarbamic acid 4-methyl-3-{2-(methylaminosulfonyl)aminopyridin-4-ylmethyl}-2-oxo-2H-1-benzopyran-7-yl ester]	31.9 nM
CNS(=O)(=O)Nc1cc(Cc2c(C)c3cc(F)c(OC(=O)N(C)C)cc3oc2=O)ccn1 [Compound 1j-1-11-2, Dimethylcarbamic acid 4-methyl-3-{2-(methylaminosulfonyl)aminopyridin-4-ylmethyl}-6-fluoro-2-oxo-2H-1-benzopyran-7-yl ester]	18.3 nM
CNS(=O)(=O)Nc1cc(Cc2c(C)c3cc(Cl)c(OC(=O)N(C)C)cc3oc2=O)ccn1 [Compound 1j-1-12-2, Dimethylcarbamic acid 4-methyl-3-{2-(methylaminosulfonyl)aminopyridin-4-ylmethyl}-6-chloro-2-oxo-2H-1-benzopyran-7-yl ester]	6.4 nM
CNS(=O)(=O)Nc1nccc(Cc2c(C)c3cc(F)c(Oc4ncccn4)cc3oc2=O)c1F [Compound 1j-2-17-2, 3-{2-(methylaminosulfonyl)amino-3-fluoropyridin-4-ylmethyl}-4-methyl-6-fluoro-7-(pyrimidin-2-yloxy)-2-oxo-2H-1-benzopyran]	21.1 nM
CNS(=O)(=O)Nc1nccc(Cc2c(C)c3cc(Cl)c(Oc4ncccn4)cc3oc2=O)c1F [Compound 1j-2-18-2, 3-{2-(Methylaminosulfonyl)amino-3-fluoropyridin-4-ylmethyl}-4-methyl-6-chloro-7-(pyrimidin-2-yloxy)-2-oxo-2H-1-benzopyran]	5.9 nM
CNS(=O)(=O)Nc1nccc(Cc2c(C)c3cc(C)c(Oc4ncccn4)cc3oc2=O)c1F [Compound 1j-2-19-2, 3-{2-(Methylaminosulfonyl)amino-3-fluoropyridin-4-ylmethyl}-4-methyl-6-methyl-7-(pyrimidin-2-yloxy)-2-oxo-2H-1-benzopyran]	17.8 nM
CCc1c(Cc2ccnc(NS(=O)(=O)NC)c2F)c(=O)oc2cc(Oc3ncccn3)c(C)cc12 [Compound 1j-2-19-2Me, 3-{2-(Methylaminosulfonyl)amino-3-fluoropyridin-4-ylmethyl}-4-ethyl-6-methyl-7-(pyrimidin-2-yloxy)-2-oxo-2H-1-benzopyran]	8.4 nM
Cc1c(Cc2cccc(NS(N)(=O)=O)c2F)c(=O)oc2cc(Oc3nccs3)ccc12 [Compound 1j-3-4-1, 3-{2-Fluoro-3-(aminosulfonyl)aminobenzyl}-4-methyl-7-(thiazol-2-yloxy)-2-oxo-2H-1-benzopyran]	22.5 nM
CNS(=O)(=O)Nc1cccc(Cc2c(C)c3ccc(Oc4nccs4)cc3oc2=O)c1F [Compound 1j-3-4-2, 3-{2-Fluoro-3-(methylaminosulfonyl)aminobenzyl}-4-methyl-7-(thiazol-2-yloxy)-2-oxo-2H-1-benzopyran]	10.9 nM
CNS(=O)(=O)Nc1cc(Cc2c(C)c3cc(Cl)c(Oc4nccs4)cc3oc2=O)ccn1 [Compound 1j-3-12-2, 3-{2-(Methylaminosulfonyl)aminopyridin-4-ylmethyl}-4-methyl-6-chloro-7-(thiazol-2-yloxy)-2-oxo-2H-1-benzopyran]	12.2 nM
CNS(=O)(=O)Nc1nccc(Cc2c(C)c3cc(C)c(Oc4nccs4)cc3oc2=O)c1F [Compound 1j-3-19-2, 3-{2-(Methylaminosulfonyl)amino-3-fluoropyridin-4-ylmethyl}-4-methyl-6-methyl-7-(thiazol-2-yloxy)-2-oxo-2H-1-benzopyran]	1.5 nM
CNS(=O)(=O)Nc1cc(Cc2c(C)c3cc(C)c(Oc4nccs4)cc3oc2=O)ccn1 [Compound 1j-3-20-2, 3-{2-(Methylaminosulfonyl)aminopyridin-4-ylmethyl}-4-methyl-6-methyl-7-(thiazol-2-yloxy)-2-oxo-2H-1-benzopyran]	8.9 nM
CNS(=O)(=O)Nc1nccc(Cc2c(C)c3cc(C)c(Oc4nccs4)cc3oc2=O)c1Cl [Compound 1j-3-44-2, 3-{2-(Methylaminosulfonyl)amino-3-chloropyridin-4-ylmethyl}-4-methyl-6-methyl-7-(thiazol-2-yloxy)-2-oxo-2H-1-benzopyran]	12.9 nM
